Data from ChEMBL document CHEMBL4266063, “Synthesis of Artemisinin-Estrogen Hybrids Highly Active against HCMV, P. falciparum, and Cervical and Breast Cancer” (ACS Med Chem Lett, 2018).

Tests used:
Human betaherpesvirus 5 = experiment: Antiviral activity against GFP-fused Human cytomegalovirus AD169 infected in HFF measured 7 days post infection; type: functional, organism-based; settings: Human betaherpesvirus 5, AD169, HFF, 168 h
MDA-MB-231 = experiment: Antiproliferative activity against human MDA-MB-231 cells after 72 hrs by MTT assay; type: functional, cell-based; settings: MDA-MB-231, 72 h
HFF = experiment: Cytotoxicity against HFF measured over 7 days by microscopic analysis; type: cell-based; settings: human, 168 h
MDA-MB-361 = experiment: Antiproliferative activity against human MDA-MB-361 cells after 72 hrs by MTT assay; type: functional, cell-based; settings: MDA-MB-361, 72 h
Plasmodium falciparum [1] = experiment: Antimalarial activity against synchronized ring stage of Plasmodium falciparum 3D7 infected in human erythrocytes after 72 hrs by SYBR Green1 dye based fluorescence assay; type: functional, organism-based; settings: 3D7, 72 h
HeLa = experiment: Antiproliferative activity against human HeLa cells after 72 hrs by MTT assay; type: functional, cell-based
MCF7 = experiment: Antiproliferative activity against human MCF7 cells after 72 hrs by MTT assay; type: functional, cell-based; settings: MCF7, 72 h
SiHa = experiment: Antiproliferative activity against human SiHa cells after 72 hrs by MTT assay; type: functional, cell-based
T47D = experiment: Antiproliferative activity against human T47D cells after 72 hrs by MTT assay; type: functional, cell-based
C-33-A = experiment: Antiproliferative activity against human C33A cells after 72 hrs by MTT assay; type: functional, cell-based
Plasmodium falciparum [2] = experiment: Potency index, ratio of chloroquine EC50 to test compound EC50 for synchronized ring stage of Plasmodium falciparum 3D7 infected in human erythrocytes; type: functional

Row | SMILES | EC50 (Human betaherpesvirus 5) [nM] | EC50 (MDA-MB-231) [nM] | Activity (HFF) | EC50 (MDA-MB-361) [nM] | EC50 (Plasmodium falciparum [1]) [nM] | EC50 (HeLa) [nM] | EC50 (MCF7) [nM] | EC50 (SiHa) [nM] | EC50 (T47D) [nM] | EC50 (C-33-A) [nM] | Ratio EC50 (Plasmodium falciparum [2])
1 | C[C@@H]1CC[C@H]2[C@@H](C)C(=O)O[C@@H]3O[C@@]4(C)CC[C@@H]1[C@]32OO4 [ARTEMISININ] | > 10000 |  |  |  |  |  |  |  |  |  | 
2 | C[C@H]1[C@@H](CC(=O)OC[C@H]2C[C@H]3[C@@H]4CCc5cc(OCc6ccccc6)ccc5[C@H]4CC[C@]3(C)[C@H]2O)O[C@@H]2O[C@@]3(C)CC[C@H]4[C@H](C)CC[C@@H]1[C@@]24OO3 | 220 | 860 | Non-Toxic | 180 | 129 | 14200 | 450 | 16100 | 930 | 150 | 
3 | COc1ccc2c(c1)CC[C@@H]1[C@@H]2CC[C@]2(C)C(=O)[C@H](N=[N+]=[N-])C[C@@H]12 |  | > 30000 |  | > 30000 | > 50000 | > 30000 | > 30000 | > 30000 | > 30000 | > 30000 | 
4 | COc1ccc2c(c1)CC[C@@H]1[C@@H]2CC[C@]2(C)[C@@H](O)[C@H](NC(=O)CCC(=O)O[C@@H]3O[C@@H]4O[C@@]5(C)CC[C@H]6[C@H](C)CC[C@@H]([C@H]3C)[C@@]46OO5)C[C@@H]12 | 2440 | 6890 | Non-Toxic | 640 | 3.8 | 11400 | 4690 | 26000 | 740 | 870 | 2
5 | C[C@H]1[C@H](OC(=O)CCC(=O)O)O[C@@H]2O[C@@]3(C)CC[C@H]4[C@H](C)CC[C@@H]1[C@@]24OO3 [ARTESUNATE] |  | 10000 |  | 2270 | 8.9 | 12000 | 4210 | > 30000 | 2220 | 1830 | 
6 | C[C@]12CC[C@@H]3c4ccc(OCc5ccccc5)cc4CC[C@H]3[C@@H]1C[C@H](CO)[C@@H]2O |  | 12800 |  | 2770 | 17200 | 12800 | 12900 | 7750 | 8320 | 12200 | 
7 | C[C@H]1[C@H](OC(=O)CCC(=O)OC[C@H]2C[C@H]3[C@@H]4CCc5cc(OCc6ccccc6)ccc5[C@H]4CC[C@]3(C)[C@H]2O)O[C@@H]2O[C@@]3(C)CC[C@H]4[C@H](C)CC[C@@H]1[C@@]24OO3 | 380 | 2300 | Non-Toxic | 200 | 34.2 | > 30000 | 760 | 28400 | 220 | 1730 | 
8 | COc1ccc2c(c1)CC[C@@H]1[C@@H]2CC[C@]2(C)C(=O)[C@H](n3cc(CO[C@H]4O[C@@H]5O[C@@]6(C)CC[C@H]7[C@H](C)CC[C@@H]([C@H]4C)[C@@]57OO6)nn3)C[C@@H]12 | 240 | 1780 | Non-Toxic | 170 | 13.1 | 15400 | 1770 | 28900 | 160 | 2050 | 
9 | COc1ccc2c(c1)CC[C@@H]1[C@@H]2CC[C@]2(C)[C@@H](O)[C@H](NC(=O)O[C@H]3O[C@@H]4O[C@@]5(C)CC[C@H]6[C@H](C)CC[C@@H]([C@H]3C)[C@@]46OO5)C[C@@H]12 | 230 | 1850 | Non-Toxic | 690 | 7.7 | 1650 | 1020 | 6210 | 1170 | 570 | 
10 | COc1ccc2c(c1)CC[C@@H]1[C@@H]2CC[C@]2(C)[C@@H](O)[C@H](N)C[C@@H]12 |  | 16000 |  | 4580 |  | 13300 | 11900 | 17400 | 5560 | 13200 | 
11 | C[C@H]1[C@@H](O)O[C@@H]2O[C@@]3(C)CC[C@H]4[C@H](C)CC[C@@H]1[C@@]24OO3 [ARTENIMOL] | > 10000 | 10700 |  | 1710 |  | 10500 | 8240 | 29800 | 4600 | 1710 | 
